Test results from BindingDB's records for doi:10.1021/acschembio.5b01018 (Stony Brook University, 2016).

Target: T1, Tyrosine-protein kinase ABL1 [229-512] (Homo sapiens, UniProt P00519)
T1 construct: 229-512
T1 sequence (P00519 whole entry): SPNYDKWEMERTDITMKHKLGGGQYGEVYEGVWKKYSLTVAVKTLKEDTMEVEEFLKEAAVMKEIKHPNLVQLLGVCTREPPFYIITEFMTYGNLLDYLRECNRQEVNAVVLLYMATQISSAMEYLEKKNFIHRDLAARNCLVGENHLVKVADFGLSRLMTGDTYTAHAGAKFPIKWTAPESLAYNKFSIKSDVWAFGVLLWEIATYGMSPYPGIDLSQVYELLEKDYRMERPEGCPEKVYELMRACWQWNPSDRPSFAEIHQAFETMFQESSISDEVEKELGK
Assay: Kinome-Wide Inhibitor Profiling for Phosphorylated c-Abl
Experimental: Inhibitor selectivity profiles were obtained through Luceome Biotechnologies (Tuscon, AZ). Each inhibitor was screened at 0.5 μM against phosphorylated c-Abl.

Structure (SMILES)	Kd [nM]
Cc1nc(Nc2ncc(C(=O)Nc3cccc(NC(=O)c4cccc(C(F)(F)F)c4)c3)s2)cc(N2CCN(CCO)CC2)n1 [DAS-DFGO-I]	1.8
Cc1nc(Nc2ncc(C(=O)Nc3cc(NC(=O)c4cccc(C(F)(F)F)c4)ccc3C)s2)cc(N2CCN(CCO)CC2)n1 [DAS-DFGO-II]	2
